Experimental data from ChEMBL document CHEMBL1275276, “Analysis of physico-chemical properties of substrates of ABC and MFS multidrug transporters of pathogenic Candida albicans” (2010).
The source made the active and inactive calls. The rule behind the calls is not given here.

Key:
Candida albicans [1] = assay: Binding affinity to Candida albicans CaMdr1p expressed in yeast AD1-8u
Saccharomyces cerevisiae [2] = assay: Antifungal activity against yeast AD1-8u expressing Candida albicans CaMdr1p by agar disk diffusion assay; type: functional; note: test concentration or dose not given here
Candida albicans [3] = assay: Binding affinity to Candida albicans CaCdr1p expressed in yeast AD1-8u
Saccharomyces cerevisiae [4] = assay: Antifungal activity against yeast AD1-8u expressing Candida albicans CaCdr1p by agar disk diffusion assay; type: functional
Throughout, for IZ: test concentration or dose not given here.

SMILES | Activity (Candida albicans [1]) | inhibition zone (IZ) (Saccharomyces cerevisiae [2]) [cm] | Activity (Candida albicans [3]) | inhibition zone (IZ) (Saccharomyces cerevisiae [4]) [cm]
CO[C@H]1/C=C/O[C@@]2(C)Oc3c(C)c(O)c4c(O)c(c(/C=N/N5CCN(C)CC5)c(O)c4c3C2=O)NC(=O)/C(C)=C\C=C\[C@H](C)[C@H](O)[C@@H](C)[C@@H](O)[C@@H](C)[C@H](OC(C)=O)[C@@H]1C [RIFAMPIN] | inactive | 0 | inactive | 0
CC/C(=C(\c1ccccc1)c1ccc(OCCN(C)C)cc1)c1ccccc1 [TAMOXIFEN] | inactive | 0.2 | Active | 0.7
CN(C/C=C/C#CC(C)(C)C)Cc1cccc2ccccc12 [TERBINAFINE] | inactive | 0 | Active | 1.2
CC(=O)Nc1c2sscc-2n(C)c1=O [THIOLUTIN] | Active | 0.7 | inactive | 0
CC[C@@]1(O)C(=O)OCc2c1cc1n(c2=O)Cc2cc3c(CN(C)C)c(O)ccc3nc2-1 [TOPOTECAN] | inactive | 0.2 | Active | 0.5
c1ccc(C(c2ccccc2)(c2ccccc2)c2ncc[nH]2)cc1 [TRITYL IMIDAZOLE] | inactive | 0 | Active | 1.3
CC[C@]1(O)C[C@@H]2CN(CCc3c([nH]c4ccccc34)[C@@](C(=O)OC)(c3cc4c(cc3OC)N(C)[C@H]3[C@@](O)(C(=O)OC)[C@H](OC(C)=O)[C@]5(CC)C=CCN6CC[C@]43[C@@H]65)C2)C1 [VINBLASTINE] | inactive | 0 | Active | 0.6
C[C@@H](c1ncncc1F)[C@](O)(Cn1cncn1)c1ccc(F)cc1F [VORICONAZOLE] | Active | 0.8 | Active | 1.9
COC(=O)[C@@H]1[C@H]2C[C@H]3c4[nH]c5ccccc5c4CCN3C[C@@H]2CC[C@@H]1O.Cl [YOHIMBINE HYDROCHLORIDE] | Active | 1.3 | Active | 1.3
